Data reported in a melting point compilation (Tetko et al.; mined from patent text by program, amines drawn as free bases though some values may be those of a salt).

melting point [°C]	SMILES
106 to 108	O=C1c2ccccc2C(=O)N1OCc1cccc(C(F)(F)F)c1
112	CCCCOc1ccc(S(=O)(=O)C2(C(=O)NO)CCN(CCOc3ccccc3)CC2)cc1
194 to 195	CCc1ccc(Nc2nc3cc(NC(=O)c4cccc(CCl)c4)ccc3o2)cc1
177 to 181	CC(=O)N1CCc2ccc(C(=O)NO)cc2C1
193 to 195	Cc1ccc(S(=O)(=O)Oc2ccc(Cl)c3c2C(=O)c2cnccc2C3=O)cc1
102 to 103	CCCN(C1CC(C)(C)Oc2ccc(OCc3ccccc3)cc21)S(=O)(=O)CC (centres undefined)
190 to 193	Cc1cccc(NC(=O)NC2N=C(C(C)C)c3cccc(C)c3N(CC(=O)N3CC4CCC(CC4)C3)C2=O)c1 (centres undefined)
71	CCC(C(=O)c1ccc(OCc2ccccc2)cc1)c1ccccc1 (centres undefined)
256 to 258	CC(C)(C)OC(=O)NCc1ccc(Nc2ncnc3[nH]cc(C(=O)c4ccccc4)c23)cc1
165	COc1ccc(CCN(C)CCOc2ccc(NC(=O)c3cccc4c(=O)c5ccccc5[nH]c34)cc2)cc1
167	COc1ccccc1OCC(O)CN1CCCC(Cn2c(=O)[nH]c3ccc(Cl)cc32)C1 (centres undefined)
204	O=C1c2cccc(NC(=S)Nc3cnccn3)c2C2CCCCN12 (centres undefined)
200 to 202	Nc1ccsc1C(=O)NCC1CCN(C[C@H]2COc3ccc(Cl)cc3O2)CC1
101 to 103	CC(C(=O)O)c1ccc(C(C)(C)C)cc1 (centres undefined)
69 to 72	O=C1CCCCC1(CCCCCOc1ccccc1)c1ccccc1 (centres undefined)
228	COc1ccc(C(=O)NCc2ccccc2)c2c1oc1ccc(N)cc12
121 to 123	CCOC(=O)c1cc(=O)c(-c2ccc(OC)cc2)co1
95.5 to 97	CCC(C(=O)OC)(C(=O)OC)C(Cc1cc(Cl)ccc1[N+](=O)[O-])c1ccc(OC)cc1 (centres undefined)
172 to 174	CC(C)[C@H](NC(=O)OCc1ccccn1)C(=O)N[C@@H](Cc1ccccc1)C[C@H](O)[C@H](Cc1ccccc1)NC(=O)OCc1cccnc1
143 to 145	CCNC(=O)c1cc(N)ccc1[Si](C)(C)C

melting point [°C]	SMILES
225 to 230	CCOC(=O)c1sc(NC(=O)NN)nc1C
216 to 217	O=C(Nc1ccc2c(c1)CCNO2)c1cc2cc(F)ccc2n1Cc1cccc(F)c1
160 to 162	O=C1[C@H]2CCC[C@H]2N(C(=O)CBr)c2ccccc2N1Cc1ccc([N+](=O)[O-])cc1 (relative stereo)
128 to 130	N[C@@H](Cc1ccccc1)[C@@H](O)C(F)(F)C(=O)NCc1ccccc1
243 to 244	CN1CCN(C(=O)c2cnc(S)n2Cc2cc(F)cc(F)c2)CC1
136 to 137	CCc1[nH]n(C2CCCC2)c2nc(Cc3ccc(OCCN4CCOCC4)cc3)nc(=O)c1-2
95 to 97	Cc1ccccc1OCC(O)COc1cccc2oc(C(=O)O)cc(=O)c12 (centres undefined)
52 to 54	COCCN1CCN(CCc2ccc(Nc3ncc4c(n3)-c3ccccc3C(c3ccccc3)C4)cc2)CC1 (centres undefined)
90.1	O=[N+]([O-])c1c(Br)nn(CC(O)CO)c1NCc1ccccc1 (centres undefined)
105 to 106	COc1cccc(C(NC(=O)Cc2c(Cl)cncc2Cl)C2CCCC2)c1 (centres undefined)
82 to 85	COC(=O)C(C)Oc1c(C#N)cnn1-c1ccc(C(F)(F)F)cc1Cl (centres undefined)
216	Cc1c(C(=O)O)cnn1-c1nc(-c2ccccc2C(F)(F)F)cs1
157 to 158	CC1=C(c2ccccc2)C(=O)N(C(C)(C)C(=O)c2cc(F)cc(F)c2)CO1
149 to 150	COc1ccc2cc(C(=O)C(C)N3CCN(Cc4ccccc4)CC3)ccc2c1 (centres undefined)
63 to 66	COc1ccc2sc(-c3ccc(OCCN4CCCC4)cc3)c(C(=O)c3ccc(OC4CCCCC4N4CCCCC4)cc3)c2c1 (centres undefined)
182 to 185	CCC(=O)Oc1ccc2c(c1)CCC1C2CCC2(C)C1CC(O)C2NC (centres undefined)
68 to 70	CCOc1ccccc1OC(c1ccccc1)C(O)CO (centres undefined)
190	O=C1NCCCN1N=Cc1ccccc1
141 to 143	COCc1cn(-c2cccc(C(F)(F)F)c2)nc(C(C)=O)c1=O
234	COc1cc2c(cc1OC)[C@@H]1CCCC[C@@H]1N=C2c1ccc(N(S(=O)(=O)c2ccc([N+](=O)[O-])cc2)S(=O)(=O)c2ccc([N+](=O)[O-])cc2)cc1 (racemic)

melting point [°C]	SMILES
185 to 186	CC(=O)NC1Cc2cccc3cccc(c23)C1=O (centres undefined)
104 to 109	CCC(=O)C(C(=O)OC)C(C(=O)c1ccccc1)c1ccc(F)cc1 (centres undefined)
185 to 186	COC(=O)CN(C(=O)CCCOc1ccc2c(c1)CN1CC(=O)NC1=N2)C1CCCCC1
256 to 258	CC1CC(=O)NN=C1c1ccc(NC(=O)c2cccs2)cc1 (centres undefined)
174	NC(=O)N(O)CCNS(=O)(=O)c1ccc2ccccc2c1
157 to 158	O=C(Nc1ccccc1)C1=C(N2CCCCC2)COC1=O
50 to 53	CC(C)C(=O)CCSc1cc(C(C)(C)C)c(O)c(C(C)(C)C)c1
97 to 102	CCOC(=O)CSc1nc(Cl)cc(Nc2ccc(F)cc2)n1
150 to 151	CC(=NO)c1ccc(NS(C)(=O)=O)c(Oc2ccc(F)cc2F)c1
197	CCCC1=NN(c2ccc(C#N)cc2)C(=O)C1=CNc1ccccc1CC
104 to 105	Cn1c(=O)n(CCCC2(C)OCCO2)c(=O)c2c1ncn2Cc1ccccc1
220 to 222	CCOc1ccc(-c2ccc3c(c2)C=C(C(=O)O)CCN3C=O)cc1F
192 to 195	O=C(NC1CCCC1)c1ccc(CCN2CC=C(c3c[nH]c(-c4ccc(F)cc4)c3-c3ccncc3)CC2)cc1
149 to 152	O=C(O)CCCc1cccc(NC(=O)[C@@H](CS)Cc2ccccc2)c1
156 to 157	COc1cccc(CCOc2cccc(-c3cccc(C(=O)O)c3)n2)c1
252 to 254	O=C(O)Cc1cccc2c(-c3ccc([N+](=O)[O-])cc3)nccc12
188 to 190	CC(C)(CO)COc1ccc(-n2cc(C(=O)O)cn2)cc1C#N
178 to 182	O=C(c1ccc(NS(=O)(=O)c2ccccc2)cc1)N1CCCCc2ccccc21
179 to 181	CC(C)CNC(=O)NS(=O)(=O)c1ccc(CCNC(=O)N2CCCCC2=O)cc1

Continued, compound first:

SMILES	melting point [°C]
COc1ccc(C=CC(=O)O)cc1-c1cc2c(cc1OCCCCCCCC(N)=O)C(C)(C)CCC2(C)C	132 to 134
CCCc1c(SC(=S)N(CC)CC)c2cc(Br)ccc2oc1=O	135 to 137
Nc1cc(C(O)=S)cc(Cc2ccccc2)c1C(=O)c1ccccc1	141 to 142
CNC(=O)c1cc2nc(C)c(C)nc2c(Cl)c1NC(=O)c1cc(C(F)(F)F)nn1-c1ncccc1Cl	221 to 224
N#CC(C#N)c1cccc(Br)c1	97 to 99
Cc1nn(-c2ccccn2)c2nc3ccccc3c(C)c12	157 to 159
Fc1ccccc1-c1nc2cccnc2s1	119 to 121
CCC(O)(c1ccsc1)c1oc(C)nc1C (centres undefined)	81 to 83
C[C@](O)(COc1ccc(Cl)c(F)c1)C(=O)Nc1ccc(C#N)c(C(F)(F)F)c1	132 to 134
COc1ccc(N(C)c2nc(NC(=O)C(C)(C)C)nc3[nH]c4ccccc4c23)cc1	288 to 289
FC(F)(F)c1cccc(N2CCC(N=Cc3cccc4ccccc34)=N2)c1	173
Nc1cc(Cl)c(OCc2ccccc2-c2ccccc2)c(Cl)c1	67 to 69
O=C(Nc1cnc2sc(CO)nc2c1)c1cc2cc(C(F)(F)F)ccc2n1Cc1nccs1	282 to 283
COC(C)=CC(=O)NC1CCCCC1	109
O=C1NC(=O)C(=Cc2ccc(-c3ccc(O)c(C45CC6CC(CC(C6)C4)C5)c3)cc2)S1	307 to 308
Cn1ccnc1C(=O)c1cc(C(C)(C)C)c(O)c(C(C)(C)C)c1	172 to 174
C(#Cc1cccs1)c1ccccc1	49 to 59
Fc1cccc(CSc2nnc(-c3ccnc(Nc4ccccn4)c3)o2)c1	141 to 142
Cc1ccc2[nH]c(CO)cc2c1C	159
CNC(=O)Oc1ccc(NC(=O)C(F)(F)Cl)c(C)c1	156 to 158

SMILES	melting point [°C]
Cc1[nH]c(=O)c(C#N)c2c1CC(C)CC2 (centres undefined)	> 290
C(=Nc1cccc2ccccc12)=Nc1cccc2ccccc12	91
Cc1ccccc1-c1nc(NCCN(C)C)ncc1N(C)C(=O)C(C)(C)c1cc(C(F)(F)F)cc(C(F)(F)F)c1	143 to 144
CCCCc1nc2cc3ccccc3cc2[nH]1	190
CC(=O)Nc1c(C)c(C)c2c(c1[N+](=O)[O-])CC(C)(C)O2	203
OC(Cn1ccnc1)C12CC3CC(CC(C3)C1)C2 (centres undefined)	226 to 228
CCCCCCCCCCCOC(=O)NCCC	45 to 45.5
O=c1[nH]c2ccc(I)cc2cc1[N+](=O)[O-]	279 to 282
O=CNc1csc(Cl)n1	138
CSc1nn(-c2c(Cl)cc(C(F)(F)F)cc2Cl)c(N)c1S(=O)(=O)c1cccc(C(F)(F)F)c1	201 to 203
C#CCOc1nc(NN)c(C(F)(F)F)cc1Cl	98 to 102
CCCN1C(=O)N2C(=NCC2c2ccccc2)c2[nH]cnc21 (centres undefined)	258 to 264
CCCCC[C@H]1CC[C@H](c2ncc(O)cn2)CC1	190 to 191
CCCOc1cc(CCCO)n(Cc2ccc(F)cc2F)n1	66 to 67
CC(C)(C)CCN1C(=O)C(N)C(=O)N(c2ccccc2F)c2ccccc21 (centres undefined)	98 to 100
Nc1ncccc1NCc1ccc(OCc2cccc(F)c2)cc1	91 to 93
O=C(O)c1cn(-c2cnsn2)c2c(F)c(F)c(F)cc2c1=O	205 to 207
CC(C)(C)NC(=O)NCC#N	128 to 132
O=Cc1ccc(-c2ccnc(-c3ccc(OC(F)(F)F)cc3)n2)cc1	70 to 73
Nc1ccc(Oc2ccc(P(=O)(c3ccccc3)c3ccccc3)c(Oc3ccc(N)cc3)c2)cc1	272 to 275
